Experimental findings from US11975017B2, “Compositions comprising an RNA polymerase inhibitor and cyclodextrin for treating viral infections” (priority 2017, dated 2024) are described below.

Values after ≈ are worked out from the molar mass of the structure shown.

A short description of one series: physchem. The note with it: water.
The format of series [1] is physicochemical. The note with it: between pH 1 and 10; FIG. 2. The procedure:
The stability of Compound 1 was determined by monitoring the concentration of Compound 1 in solution by liquid chromatography at various storage conditions. […] The solubility of Compound 1 between pH 1 and 10 was determined by quantitatively measuring the concentration of Compound 1 in solution at various pH conditions by liquid chromatography.

`CCC(CC)COC(=O)[C@H](C)N[P@](=O)(OC[C@H]1O[C@@](C#N)(c2ccc3c(N)ncnn23)[C@H](O)[C@@H]1O)Oc1ccccc1` [Compound 1, (S)-2-ethylbutyl 2-(((S)-(((2R,3S,4R,5R)-5-(4-aminopyrrolo[2,1-f][1,2,4]triazin-7-yl)-5-cyano-3,4-dihydroxytetrahydrofuran-2-yl)methoxy)(phenoxy)phosphoryl)amino)propanoate] returned a solubility in the series “physchem” of approximately 30 µg/mL (≈ 49.8 µM). Besides, the “solubility as a function of pH” value in series [1] was “increases at or below pH 4”.

What is called solubility is how much of the substance goes into solution per volume.
